Experimental data taken from EP2451450B1, “Inhibitors of proline racemase enzymes for the treatment of Trypanosoma spp infections” (Institut Pasteur, priority 2009, dated 2011).
Where two headings read alike, the source gives them in different places.

Legend:
[1] = target: T1, TcPRAC (Trypanosoma cruzi, UniProt Q4DA80); experiment: L-proline racemization assay, formed D-proline determined by DAAOx test; assay type: biochemical
T1 construct: implied only by nickel IMAC purification; made in house; host or cells: E. coli BL21 (DE3)
T1 sequence (Q4DA80 32-423): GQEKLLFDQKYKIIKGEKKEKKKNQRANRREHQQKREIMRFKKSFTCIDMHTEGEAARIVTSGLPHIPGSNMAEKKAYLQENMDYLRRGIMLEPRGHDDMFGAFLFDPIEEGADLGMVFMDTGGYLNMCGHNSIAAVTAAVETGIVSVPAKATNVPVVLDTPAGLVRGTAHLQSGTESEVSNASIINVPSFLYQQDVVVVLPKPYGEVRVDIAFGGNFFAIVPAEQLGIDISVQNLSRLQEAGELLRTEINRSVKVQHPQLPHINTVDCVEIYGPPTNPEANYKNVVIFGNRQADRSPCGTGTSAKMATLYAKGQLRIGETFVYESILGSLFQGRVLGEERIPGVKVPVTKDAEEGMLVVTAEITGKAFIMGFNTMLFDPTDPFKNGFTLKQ
Experimental: (§1) Briefly, classical assays of Proline racemization induced by TcPRAC were performed in tubes in a final volume of 1.5 ml and optical rotations measured in a polarimeter 241MC (Perkin Elmer). Parallel assays of Proline racemization were transposed into microplates in a final volume of 100 µl, as follows: serial dilutions of L- Proline ranging from 40 mM to 2.5 mM were prepared in 0.2 M sodium acetate pH 6.0 containing 0.25 mM rTcPRAC and loaded into microplate wells in the presence or in the absence of 0 - 20 µM pyrrole-2 carboxylic acid (PYC) or of similar dilutions of unknown potential inhibitors. Specific control wells were included omitting the TcPRAC and/or the PYC.
Microplates were incubated for 30 minutes at 37° C. Enzyme activity was then inactivated by heating the plate for 15 seconds in a microwave oven at 900 watts after shifting the pH of wells to 8.3 by addition of 6.8 µl of 0.235 M sodium Pyrophosphate. 50 µl of each well were used to test the presence of D-Proline using the DAAOx (D-amino acid oxidase) test described below. L- amino acids may react at very low rate with DAAOx. For instance, DAAOx reacts with L-Proline 300 times slower than D-Proline. Consequently, when assessing amino acid racemization products, standards should consist of serial dilution of equimolar mixtures of specific D- and L-amino acids ranging from 0 to 20 mM (10 mM final) to take into account any interference of possible reactivity with DAAOx of the L- form of amino acids present in the samples.
Solution A consisting of 0.2 M sodium acetate/0.016 M sodium pyrophosphate (Pop) buffer, pH 8.3 was used to prepare the enzyme stock solutions conserved in 50% glycerol, namely: 50 U/ml D-amino acid oxidase from pig kidney (DAAOx, Sigma) and 5000 U/ml Horse Raddish Peroxydase (HRP, Sigma). Stock solutions of L- proline (1M), D- proline (1M) and Pyrrole-2-carboxylic acid (10 mM) (PYC, Sigma) are also prepared in solution A. 10^-1 M FAD (Sigma) stock was prepared in water. Solution B consists in adding to solution A the following reagents at a final concentration in the assay of 1 U/ml for DAAOx, 0.5 mg/ml orthophenylenediamine (OPD, Sigma), 37.5 U/ml HRP and FAD (1.5x10^-5 M FAD). The test is run in 96 wells micro plates (Nunc, Denmark). […] OD 490nm - 650nm is obtained with a microtiter plate reader (Molecular Devices), and compared to those obtained with blank control wells.
The values presented in Table 2A correspond to racemization reactions performed in the absence or in the presence of 10 µM concentration of the different ligands. […] Briefly, 22.4 mg/ml of active TcPRAC was used in the racemization assays of 10 mM L-proline substrate and the concentration of formed D-proline was determined by the DAAOx test, as described in the Material and Methods. […]

[2] = target: T1, TcPRAC; experiment: L-proline racemization assay by polarimetry; assay type: biochemical; conditions: ligand 10.0 µM; L-Proline 20 mM, 30 minutes 37°C, 0.25 µM TcPRAC
Experimental: as §1
The values presented in Table 2B correspond to racemization reactions performed in the absence or in the presence of the different inhibitors. Note that 6 µM PYC is necessary to inhibit 100 % of the racemization of 10-20 mM L-proline. Briefly, L-Proline (20 mM) were incubated for 30 minutes at 37°C in test tubes with or without 0.25 µM TcPRAC in 0.2 M sodium acetate pH 6. Reactions were stopped by heating at 65° C for 10 minutes. Reaction volumes were analyzed for D-Proline formation, by measuring optical rotations in a polarimeter (365nm).

[3] = tested on: T. cruzi; experiment: Capture ELISA of Vero cultures infected 17h with or without inhibitor; assay type: cell-based, Trypanosoma cruzi; conditions: 17h at 37°C, 10:1 parasite/cell ratio; 0-30 mM OxoPA, Br-OxoPA or 10-1000 µM PYC in DMSO; Fig. 9
Experimental: Flat-bottomed microtiter plates (Nunc, Denmark) were coated overnight at 4°C with rabbit anti-T. cruzi polyclonal antibodies and further blocked for 4 h at room temperature (RT) with 1% BSA, 0.05% Tween 20 in PBS. After washings, lysate samples from infected or control Vero cultures, or from T. cruzi, were then added and incubated at 4°C for 18h. Plates were washed with PBS-Tween and incubated for 2h at RT with polyclonal mouse anti-T. cruzi chronic serum, washed again and incubated for 1 h at RT with HRP-secondary antibodies. […] Optical densities were determined in a spectrophotometer at 450 nm and 650 nm and analyzed using Softmax Pro software.
To confirm the effect of the inhibitors in the initial steps of the host-parasite interaction, cultures were infected for 17h at 37°C at a 10:1 parasite/cell ratio with or without increasing doses of freshly prepared dilutions (0-30 mM) of OxoPA, Br-OxoPA (15), or (10-1000 µM) of PYC, previously dissolved in DMSO and further analyzed by capture ELISA (see methods and Fig. 9). […] Three ongoing studies were performed to determine whether TcPRAC inhibition by the new compounds affects parasite intracellular fate. To do this, host cells were infected for 17 hours then washed and different ligand concentrations (5 mM, 10 mM, 30, 100 mM) were added to the medium. The degree of infection was determined over 48 hours by capture ELISA. The number of parasites per well decreased in a dose-dependent manner (Fig. 7). These experiments indicate that TcPRAC inhibition by OxoPA and Br-OxoPA affects both cellular infection by T. cruzi and parasite development in tissues.

[4] = tested on: T.cruzi CL Brener (clone F11-F5); conditions: cited from earlier work; for Mean number of parasites/ cell / % Infected cells / Endocytic index: from previous work; for Endocytic index (EI): Table 5, same PYC data as Table 3A
[5] = target: recombinant TvPRAC; conditions: 5 µM PYC, 20-160 mM L-proline; Chamond et al 2009; cited from earlier work
[6] = target: T1, TcPRAC; conditions: cited from earlier work
[7] = target: CsPRAC; conditions: value given for comparison; cited from earlier work
[8] = target: T1, TcPRAC; assay type: biochemical; conditions: in words; for inhibition of TcPRAC activity: Table 1
Experimental: Optimum Proline racemization conditions for TcPRAC were determined using 10-20 mM L-Proline in 0.2 M NaOAc, as a function of pH, as described [24].
Briefly, classical assays of Proline racemization induced by TcPRAC were performed in tubes in a final volume of 1.5 ml and optical rotations measured in a polarimeter 241MC (Perkin Elmer). […] Specific control wells were included omitting the TcPRAC and/or the PYC.
Microplates were incubated for 30 minutes at 37° C. Enzyme activity was then inactivated by heating the plate for 15 seconds in a microwave oven at 900 watts after shifting the pH of wells to 8.3 by addition of 6.8 µl of 0.235 M sodium Pyrophosphate. 50 µl of each well were used to test the presence of D-Proline using the DAAOx (D-amino acid oxidase) test described below [25]. L- amino acids may react at very low rate with DAAOx. For instance, DAAOx reacts with L-Proline 300 times slower than D-Proline. Consequently, when assessing amino acid racemization products, standards should consist of serial dilution of equimolar mixtures of specific D- and L-amino acids ranging from 0 to 20 mM (10 mM final) to take into account any interference of possible reactivity with DAAOx of the L- form of amino acids present in the samples.
Solution A consisting of 0.2 M sodium acetate/0.016 M sodium pyrophosphate (Pop) buffer, pH 8.3 was used to prepare the enzyme stock solutions conserved in 50% glycerol, namely: 50 U/ml D-amino acid oxidase from pig kidney (DAAOx, Sigma) and 5000 U/ml Horse Raddish Peroxydase (HRP, Sigma). Stock solutions of L- proline (1M), D- proline (1M) and Pyrrole-2-carboxylic acid (10 mM) (PYC, Sigma) are also prepared in solution A. 10^-1 M FAD (Sigma) stock was prepared in water. Solution B consists in adding to solution A the following reagents at a final concentration in the assay of 1 U/ml for DAAOx, 0.5 mg/ml orthophenylenediamine (OPD, Sigma), 37.5 U/ml HRP and FAD (1.5x10^-5 M FAD). […] OD 490nm - 650nm is obtained with a microtiter plate reader (Molecular Devices), and compared to those obtained with blank control wells. […]

Compound: O=C(O)c1ccc[nH]1 [PYC, pyrrole-2-carboxylic acid]
- IC50 [1]: ~10 µM
- Formed D-Proline ([1]; ligand 10 µM, 10 mM L-proline, 22.4 mg/ml TcPRAC, 5.0mM without ligand): 2.4 mM (IC50)
- Racemization Inhibition [2]: 56.9%
- inhibition of cellular infection [3]: no particular differences were observed
- Mean number of parasites/ cell ([4]; 10 µM, 2 at 0): 1,7
- % Infected cells ([4]; 10 µM, 90,0 at 0): 75,0%
- Endocytic index ([4]; 10 µM): 44
- % Infected cells ([4]; 100 µM): 45,0%
- Endocytic index ([4]; 100 µM): 30
- Mean number of parasites/ cell ([4]; 100 µM): 1,5
- % Infected cells ([4]; 1000 µM): 25,0%
- Endocytic index ([4]; 1000 µM): 25
- Mean number of parasites/ cell ([4]; 1000 µM): 1,0
- Endocytic index (EI) ([4]; Inhibitor concentration 10): 44
- Endocytic index (EI) ([4]; Inhibitor concentration 100): 30
- Endocytic index (EI) ([4]; Inhibitor concentration 1000): 25
- Ki [5]: 20 µM
- PYC necessary to inhibit 100 % of the racemization of 10-20 mM L-proline ([6]; reference [15]): 6 µM
- affinity for the TcPRAC catalytic pocket ([6]; reference [15]): 6 µM
- Ki ([6]; value given for comparison): 6.7 µM
- Ki [7]: 18 µM

Compound: O=C(O)c1n[nH]cc1Br [Pyrazole 4-bromo 5-carboxylic, 4-bromo-1H-pyrazole-3-carboxylic acid]
- inhibition of TcPRAC activity [8]: weak inhibitions

Compound: O=C(O)c1n[nH]cc1Cl [Pyrazole 4-chloro 5-carboxylic, 4-chloro-1H-pyrazole-3-carboxylic acid]
- inhibition of TcPRAC activity [8]: weak inhibitions

Compound: O=C(O)c1cc[nH]n1 [Pyrazole 5-carboxylic, 1H-pyrazole-3-carboxylic acid]
- activity with PRAC (Figure 1 compounds) [8]: very weakly active
